Key:
human PBL = assay: Proliferation of human PBL; assay type: cell-based; design: unit not given here
Text: (§1) The effect on IL-2 production by AVC was not due to a direct proliferative effect on PBL in culture (Table IV) nor did it have a direct effect on IL-2 production by Jurkat or LBRM-33 T lymphoma cells (Table V).

Jurkat cells = assay: Production of IL-2 by Jurkat T lymphoma cells; assay type: cell-based, human
Method: (§2) Typically, peripheral blood lymphocytes (PBL) from normal donors are incubated (2×10^6 cells/ml) in RPMI-1640 medium supplemented with 4 mM glutamine, 0.1 mM nonessential amino acids, 1 mM sodium pyruvate, 10 mM HEPES and 10% FCS and containing either Con A (5 μg/ml) or PHA (10 μg/ml) as the mitogen. AVC was added at the initiation of the culture at the dose of 12 μg/ml. The cultures were then incubated in a 5% CO2 atmosphere. Culture supernatants were collected on day 2, 3 and 4 and tested for the content (Units/ml) of IL-2 using a biological assay consisting in measuring the proliferative response of murine CTLL-2 T cells whose growth in culture is strictly dependent on the presence of IL-2 in the medium. The proliferative response (^3H-Thymidine incorporation) of CTLL-2 cells was plotted on a reference curve constructed with a standard amount of IL-2 and the experimental values calculated accordingly.
as §1

LBRM-33 Cells = assay: Production of IL-2 by LBRM-33 T lymphoma cells; assay type: cell-based
Method: as §2, §1

What does the source list for concanavalin A [Con A]?
Proliferation of human PBL (human PBL; Experiment 1, 24 Hours): 3,772; Proliferation of human PBL (human PBL; Experiment 1, 48 Hours): 37,839; Proliferation of human PBL (human PBL; Experiment 1, 72 Hours): 42,357; Proliferation of human PBL (human PBL; Experiment 2, 24 Hours): 182; Proliferation of human PBL (human PBL; Experiment 2, 48 Hours): 23,767; Production of IL-2 (Jurkat cells; 24 Hours): 3,815; Production of IL-2 (Jurkat cells; 48 Hours): 10,061; Production of IL-2 (LBRM-33 Cells; 24 Hours): 28,774; Production of IL-2 (LBRM-33 Cells; 48 Hours): 28,880

Reference: patent US20040137085A1, “Treatment of HIV infection with humic acid” (priority 1993, published 2004)
